Our source for the IC50 values is ChEMBL document CHEMBL1125793 (J Med Chem, 1991).

This assay addresses T1, Angiotensin II receptor (Rattus norvegicus, UniProt P29089+P25095+P35351).
T1 sequence (P29089 whole entry): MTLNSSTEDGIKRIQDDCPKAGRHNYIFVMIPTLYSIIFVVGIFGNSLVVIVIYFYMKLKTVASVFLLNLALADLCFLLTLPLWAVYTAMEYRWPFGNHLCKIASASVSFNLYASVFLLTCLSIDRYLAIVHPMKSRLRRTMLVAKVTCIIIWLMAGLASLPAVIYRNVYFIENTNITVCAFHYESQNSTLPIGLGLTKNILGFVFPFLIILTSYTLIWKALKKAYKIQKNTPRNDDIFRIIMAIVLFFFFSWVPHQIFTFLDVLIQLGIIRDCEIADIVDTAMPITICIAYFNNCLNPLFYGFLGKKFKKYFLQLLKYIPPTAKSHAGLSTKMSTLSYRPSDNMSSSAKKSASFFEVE
T1 sequence (P25095 whole entry): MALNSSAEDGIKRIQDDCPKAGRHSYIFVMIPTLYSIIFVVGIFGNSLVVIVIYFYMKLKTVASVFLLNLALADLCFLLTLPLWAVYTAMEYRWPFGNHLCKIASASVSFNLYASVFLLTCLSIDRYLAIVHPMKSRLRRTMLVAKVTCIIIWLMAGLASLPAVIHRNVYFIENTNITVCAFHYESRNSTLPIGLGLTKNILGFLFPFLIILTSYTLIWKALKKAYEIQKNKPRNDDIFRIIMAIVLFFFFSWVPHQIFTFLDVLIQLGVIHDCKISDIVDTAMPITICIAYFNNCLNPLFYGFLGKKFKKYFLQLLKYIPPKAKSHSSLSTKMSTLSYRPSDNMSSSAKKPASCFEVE
T1 sequence (P35351 whole entry): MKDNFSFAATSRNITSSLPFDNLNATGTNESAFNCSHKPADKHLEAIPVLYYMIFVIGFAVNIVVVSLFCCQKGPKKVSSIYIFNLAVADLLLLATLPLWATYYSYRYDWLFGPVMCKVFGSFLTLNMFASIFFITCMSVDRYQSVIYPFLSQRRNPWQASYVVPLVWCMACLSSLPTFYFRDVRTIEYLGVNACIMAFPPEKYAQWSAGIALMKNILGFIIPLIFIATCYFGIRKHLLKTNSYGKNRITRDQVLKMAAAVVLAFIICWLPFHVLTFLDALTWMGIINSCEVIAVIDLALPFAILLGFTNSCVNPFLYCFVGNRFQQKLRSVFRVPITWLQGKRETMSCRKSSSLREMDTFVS
Put plainly: Binding affinity against Angiotensin II receptor, from rat adrenal gland. It counts as tissue-based.
A word on the IC50: it is the concentration needed to halve the response being measured. Read a low IC50 as higher potency. Turning to `Cc1ccc(Cn2cnc3c2C[C@@H](C(=O)O)N(C(=O)C(c2ccccc2)c2ccccc2)C3)cc1C`, the IC50 was determined as 300 nM. That is a sub-micromolar value.

Take `CC(=O)Nc1ccc(Cn2cnc3c2C[C@@H](C(=O)O)N(C(=O)C(c2ccccc2)c2ccccc2)C3)cc1C`: the IC50 was found to be 89 nM.

`COc1ccc(Cn2cnc3c2C[C@@H](C(=O)O)N(C(=O)C(c2ccccc2)C2CCCC2)C3)cc1C` (stereo partly drawn) registered an IC50 of 67 nM.

The molecule `CCN(CC)c1ccc(Cn2cnc3c2C[C@@H](C(=O)O)N(C(=O)C(c2ccccc2)c2ccccc2)C3)cc1` returned an IC50 of 290 nM.

The molecule `Cc1cc(C)cc(Cn2cnc3c2C[C@@H](C(=O)O)N(C(=O)C(c2ccccc2)c2ccccc2)C3)c1` had an IC50 of 140 nM.

In turn, `COc1ccc(Cn2cnc3c2C[C@@H](C(=O)O)N(C(=O)CC(c2ccccc2)c2ccccc2)C3)cc1C` came in with an IC50 of 4200 nM.

In the case of `COc1cccc(Cn2cnc3c2C[C@@H](C(=O)O)N(C(=O)C(c2ccccc2)c2ccccc2)C3)c1`, the IC50 is 120 nM.

In the case of `Cc1cc(Cn2cnc3c2C[C@@H](C(=O)O)N(C(=O)C(c2ccccc2)c2ccccc2)C3)ccc1[N+](=O)[O-]`, the IC50 amounted to 290 nM.

The molecule `COc1ccc(Cn2cnc3c2C[C@@H](C(=O)O)N(C(=O)C(c2ccccc2)c2ccccc2)C3)cc1` yielded an IC50 of 290 nM.

For the molecule `CN(C(=O)N1Cc2ncn(Cc3ccccc3)c2CC1CO)c1ccccc1` (stereo not drawn), the IC50 was determined as 1600 nM. This IC50 is about 5.5-fold higher than that of the molecule before.

As for `COc1ccc(Cn2cnc3c2C[C@@H](C(=O)O)N(C(=O)C(c2ccc([N+](=O)[O-])cc2)c2ccc([N+](=O)[O-])cc2)C3)cc1C`, the IC50 worked out at 13000 nM.

Molecule `COc1ccc(Cn2cnc3c2C[C@@H](C(=O)O)N(C(=O)C2(c4ccccc4)CCCCC2)C3)cc1C` had an IC50 of 110 nM.

In the case of `O=C(C(=O)N1Cc2ncn(Cc3ccccc3)c2CC1C(=O)O)c1ccccc1` (stereo not drawn), the IC50 was 2400 nM.

For `COc1ccc(Cn2cnc3c2CCN(C(=O)C(c2ccccc2)c2ccccc2)C3)cc1C`, the IC50 came out at 4400 nM.

`O=C(C(c1ccccc1)c1ccccc1)N1Cc2ncn(Cc3ccccc3)c2CC1CO` (stereo not drawn) came in with an IC50 of 2100 nM. Against the preceding molecule, the IC50 is about 2.1-fold lower.

The molecule `O.O=C(O)[C@@H]1Cc2c(ncn2CC2CCCCC2)CN1C(=O)C(c1ccccc1)c1ccccc1` came in with an IC50 of 340 nM.

`COc1ccc(Cn2cnc3c2C[C@@H](C(=O)O)N(C(=O)C(c2ccc(C)cc2)c2ccc(C)cc2)C3)cc1C` displayed an IC50 of 510 nM.

Turning to `COc1ccc(Cn2cnc3c2C[C@@H](C(=O)O)N(C(=O)CC24CC5CC(CC(C5)C2)C4)C3)cc1C`, the IC50 turned out to be 28000 nM.

`CN(C(=O)N1Cc2ncn(Cc3ccccc3)c2CC1C(=O)O)c1ccccc1` (stereo in doubt; 3a) returned an IC50 of 1100 nM.

Molecule `O=C(C(c1ccccc1)c1ccccc1)N1CCc2c(ncn2Cc2ccccc2)C1` registered an IC50 of 6100 nM.

With `COc1ccc(Cn2cnc3c2C[C@@H](C(=O)O)N(C(=O)C(Cc2ccccc2)c2ccccc2)C3)cc1C` (stereo partly drawn), the IC50 was 3500 nM.

As for `O=C(O)C1Cc2ncn(Cc3ccccc3)c2CN1C(=O)/C=C/c1ccccc1` (stereo not drawn), the IC50 worked out at 29000 nM.

In the case of `O=C(O)C1Cc2c(ncn2Cc2ccccc2)CN1C(=O)/C=C/c1ccccc1` (stereo not drawn), the IC50 was determined as 2500 nM. This IC50 lies about 12-fold lower than the previous one.

The molecule `Cc1ccc(C(C(=O)N2Cc3ncn(Cc4ccccc4)c3CC2C(=O)O)c2ccc(C)cc2)cc1` (stereo not drawn) displayed an IC50 of 1300 nM.

Consider `O=C(O)[C@@H]1Cc2c(ncn2Cc2cccc(C(F)(F)F)c2)CN1C(=O)C(c1ccccc1)c1ccccc1`, for which the IC50 worked out at 460 nM. Compared with the last molecule, the IC50 is about 2.8-fold lower.

In turn, `O=C(O)[C@H]1Cc2c(ncn2Cc2ccccc2)CN1C(=O)C(c1ccccc1)c1ccccc1` yielded an IC50 of 1200 nM. Compared with the last molecule, the IC50 is about 2.6-fold higher.

In the case of `CNC(=O)Nc1ccc(Cn2cnc3c2C[C@@H](C(=O)O)N(C(=O)C(c2ccccc2)c2ccccc2)C3)cc1C`, the IC50 came out at 44 nM.

Take `O=C(O)[C@@H]1Cc2c(ncn2Cc2ccc([N+](=O)[O-])cc2)CN1C(=O)C(c1ccccc1)c1ccccc1`: the IC50 is 610 nM.

`COc1ccc(Cn2cnc3c2C[C@@H](C(=O)O)N(C(=O)C(c2ccccc2)c2ccccc2)C3)cc1F` returned an IC50 of 260 nM.

`O=C(O)[C@@H]1Cc2c(ncn2CCC2CCCCC2)CN1C(=O)C(c1ccccc1)c1ccccc1` showed an IC50 of 240 nM.

Turning to `COc1ccc(Cn2cnc3c2C[C@@H](C(=O)O)N(C(=O)C(c2ccccc2)C2CCCCC2)C3)cc1C` (stereo partly drawn), the IC50 was found to be 85 nM.

Molecule `O=C(O)C1Cc2c(ncn2Cc2ccccc2)CN1C(=O)NCc1ccccc1` (stereo not drawn) registered an IC50 of 11000 nM.

Take `COc1ccc(Cn2cnc3c2C[C@@H](C(=O)O)N(C(=O)CC2CCCCC2)C3)cc1C`: the IC50 was 2000 nM.

The molecule `COc1ccc(C(C(=O)N2Cc3ncn(Cc4ccc(OC)c(C)c4)c3C[C@H]2C(=O)O)c2ccc(OC)cc2)cc1` registered an IC50 of 2000 nM.

Molecule `O=C(O)C1Cc2c(ncn2Cc2ccccc2)CN1C(=O)Oc1ccccc1` (stereo not drawn) came in with an IC50 of 4600 nM.

Consider `CC(C)NC(=O)N1Cc2ncn(Cc3ccccc3)c2CC1C(=O)O` (stereo not drawn), for which the IC50 was 21000 nM.

As to `O=C(O)C1Cc2c(ncn2Cc2ccccc2)CN1C(=O)C(c1ccccc1)c1ccccc1` (stereo in doubt; 18), the half-inhibitory concentration (IC50) was determined as 1000 nM.

Take `O=C(O)C1Cc2c(ncn2Cc2ccccc2)CN1C(=O)C(c1ccc([N+](=O)[O-])cc1)c1ccc([N+](=O)[O-])cc1` (stereo not drawn): the IC50 was determined as 13000 nM.

For `COc1ccc(Cn2cnc3c2C[C@@H](C(=O)O)N(C(=O)/C=C\c2ccccc2)C3)cc1C`, the IC50 was 2200 nM.

As for `CC(=O)Nc1ccc(Cn2cnc3c2C[C@@H](C(=O)O)N(C(=O)C(c2ccccc2)c2ccccc2)C3)cc1`, the IC50 is 350 nM.

Molecule `COc1ccc(Cn2cnc3c2C[C@@H](C(=O)O)N(C(=O)C(c2ccc(Cl)cc2)c2ccc(Cl)cc2)C3)cc1C` returned an IC50 of 2400 nM.

On to `O=C(O)C1Cc2c(ncn2Cc2ccccc2)CN1S(=O)(=O)Cc1ccccc1` (stereo not drawn), for which the IC50 amounted to 19000 nM.

For `COc1ccc(Cn2cnc3c2C[C@@H](C(=O)O)N(C(=O)C(C)(c2ccccc2)c2ccccc2)C3)cc1C`, the IC50 was 9500 nM.

Molecule `CC(c1ccccc1)n1cnc2c1C[C@@H](C(=O)O)N(C(=O)C(c1ccccc1)c1ccccc1)C2` (stereo partly drawn) displayed an IC50 of 1100 nM.

Molecule `O=C(O)[C@@H]1Cc2c(ncn2CCc2ccccc2)CN1C(=O)C(c1ccccc1)c1ccccc1` returned an IC50 of 240 nM.

The molecule `O=C(O)[C@@H]1Cc2c(ncn2Cc2ccc3ccccc3c2)CN1C(=O)C(c1ccccc1)c1ccccc1` yielded an IC50 of 270 nM.

Regarding `COc1ccc(Cn2cnc3c2C[C@@H](C(=O)O)N(C(=O)C2(c4ccccc4)CCCC2)C3)cc1C`, the IC50 was 840 nM. Compared with the last molecule, the IC50 is about 3.1-fold higher.

In turn, `CN(Cc1ccccc1)C(=O)N1Cc2ncn(Cc3ccccc3)c2CC1C(=O)O` (stereo not drawn) registered an IC50 of 4100 nM.

`Nc1ccc(Cn2cnc3c2C[C@@H](C(=O)O)N(C(=O)C(c2ccccc2)c2ccccc2)C3)cc1` registered an IC50 of 150 nM.

With `CN(C(=O)N1Cc2ncn(Cc3ccccc3)c2CC1C(=O)O)c1ccccc1` (stereo in doubt; 3), the IC50 came to 1200 nM. This IC50 lies about 8-fold higher than the previous one.

`Cc1cc(Cn2cnc3c2C[C@@H](C(=O)O)N(C(=O)C(c2ccccc2)c2ccccc2)C3)ccc1O` gave an IC50 of 56 nM.

The molecule `O=C(O)C1Cc2c(ncn2Cc2ccccc2)CN1C(=O)C(c1ccc(F)cc1)c1ccc(F)cc1` (stereo not drawn) yielded an IC50 of 2100 nM.

For `COc1ccc(C(C(=O)N2Cc3ncn(Cc4ccccc4)c3CC2C(=O)O)c2ccc(OC)cc2)cc1` (stereo not drawn), the IC50 stood at 610 nM.

Consider `COC(=O)C1Cc2c(ncn2Cc2ccc(N(C)C)c(C)c2)CN1C(=O)C(c1ccccc1)c1ccccc1` (stereo not drawn), for which the IC50 came to 350 nM. This IC50 lies about 1.7-fold lower than the previous one.

In turn, `O=C(O)[C@@H]1Cc2c(ncn2Cc2cccnc2)CN1C(=O)C(c1ccccc1)c1ccccc1` displayed an IC50 of 120 nM.

Molecule `Cc1cc(Cn2cnc3c2C[C@H](C(=O)O)N(C(=O)C(c2ccccc2)c2ccccc2)C3)ccc1N(C)C.O` came in with an IC50 of 97 nM.

For `O=C(O)[C@@H]1Cc2c(ncn2Cc2ccc(F)cc2)CN1C(=O)C(c1ccccc1)c1ccccc1`, the IC50 was determined as 450 nM. Compared with the last molecule, the IC50 is about 4.6-fold higher.

Regarding `O=C(O)C1Cc2c(ncn2Cc2ccccc2)CN1C(=O)OCc1ccccc1` (stereo in doubt; 7a), the IC50 stood at 4200 nM. This IC50 lies about 9.3-fold higher than the previous one.

For the molecule `COc1ccc(Cn2cnc3c2C[C@@H](C(=O)O)N(C(=O)N(C)c2ccccc2)C3)cc1C`, the IC50 was 140 nM.

Consider `O=C(O)C1Cc2c(ncn2Cc2ccccc2)CN1C(=O)C(c1ccccc1)C1CCCC1` (stereo not drawn), for which the IC50 stood at 71 nM.

The molecule `Cc1cc(Cn2cnc3c2CC(CO)N(C(=O)C(c2ccccc2)c2ccccc2)C3)ccc1N(C)C` (stereo not drawn) gave an IC50 of 200 nM.

With `O=C(O)[C@@H]1Cc2c(ncn2Cc2cccc(Cl)c2)CN1C(=O)C(c1ccccc1)c1ccccc1`, the IC50 stood at 1200 nM.

For the molecule `O=C(O)[C@@H]1Cc2c(ncn2Cc2cccc(Br)c2)CN1C(=O)C(c1ccccc1)c1ccccc1`, the IC50 was 650 nM. This IC50 lies about 1.8-fold lower than the previous one.
